From patent US10966978B2, “Dose and regimen for HDM2-p53 interaction inhibitors” (Novartis AG, priority 2016, dated 2021)
Like-named read-outs stand apart in the source and are kept apart here. Marks after values point to notes of the source that are not given here.

Assays:
[1] = system: human SJSA-1 (osteosarcoma) xenograft; assay: PK/PD tumor growth modelling, human SJSA-1 xenograft rat model; assay type: in vivo; conditions: predicted preclinical target
Experimental: Calculation of average dose level (mg/day):
To further support the preferred dose for HDM201, compartmental PK modeling was used to estimate the individual average concentration per cycle for the 9 patients treated at 120 mg on regimen 1B (FIG. 2). For the majority of patients (7 out of 9), the estimated average drug concentrations per cycle were near or above the most conservative average tumor stasis concentration of ≈41 ng/mL per cycle determined from PKPD modeling of preclinical data (human SJSA-1 xenograft rat model).

platelets = assay: PK/PD model of thrombocytopenia (modeled platelet kinetic profiles); set-up: species or system human; conditions: regimen 1B (150 mg)
Description: Based on individual PK and platelet counts data overtime a PK/PD model was established.
PK model: 1 compartment with biphasic absorption.
PD model: Adjusted Friberg model for thrombocytopenia including PLT transfusions and effect on HDM201 on proliferative cells and regulations.
The platelet kinetic profiles shown in FIG. 5 are modeled based on the following doses as tested in each regimen (in order from top to bottom in FIG. 5): […]

[2] = system: advanced TP53 wild-type (WT) leukemias (AML, ALL); assay type: in vivo, human
Description: Tables 5 and 6 and FIG. 6 provide efficacy information for dosing regimen 1B in comparison to other regimens.

[3] = Compartmental PK modeling of average concentration during cycle 1, patients with hematological tumors; assay type: in vivo, human; conditions: all patients with measured PK, four regimens
Experimental: Pharmacokinetic data have been evaluated throughout the course of the clinical study. […] Furthermore, an integrated analysis of all available HDM201 concentrations was conducted using a population approach. The PK of HDM201 was best described by a 1-compartment PK model with a delayed zero- and first-order absorption process, and a linear clearance. Body weight was identified as a statistically significant covariate on apparent central volume of distribution (Vc/F), in which Vc/F increased with increasing body weight.
Compartmental PK modeling was used to estimate the individual average concentration during cycle 1 for patients with hematological tumors treated following the four different (FIG. 7). For all patients with measured PK, the estimated average drug concentrations during cycle 1 were above the most conservative average tumor stasis concentration of about 41 ng/mL per cycle determined from PKPD modeling of preclinical data (human SJSA-1 xenograft rat model).

[4] = AML CR patient, 1A 250 mg, March 2017
[5] = AML CR patient, 1A 400 mg, March 2017
[6] = AML CR patient, 2C 45 mg, March 2017
[7] = AML CRi patient, 1B 150 mg, March 2017
[8] = CR, Reg 1A 250 mg, person, September 2017
[9] = CR, Reg 1A 400 mg, Male/71, September 2017
[10] = CR, Reg 1B 120 mg, Male/67, September 2017
[11] = CR, Reg 2C 45 mg, Male/76, September 2017
[12] = CR, Reg 2C 45 mg, person, September 2017
[13] = CRi, Reg 1A 250 mg, person, September 2017
[14] = CRi, Reg 1B 150 mg, person, September 2017
[15] = CRi, Reg 2C 45 mg, Male/70, September 2017
[16] = CRi, Reg 2C 45 mg, Male/79, September 2017
[17] = CRi, Reg 2C 45 mg, person one, September 2017
[18] = CRi, Reg 2C 45 mg, person three, September 2017
[19] = Dose escalation, Regimen 2C 45 mg (8 patients), September 2017
[20] = Dose expansion, Regimen 2C 45 mg (17 patients), September 2017
[21] = Regimen 1A (n = 15), March 2017

COc1ncc(-c2nc3c(n2C(C)C)[C@H](c2ccc(Cl)cc2)N(c2cc(Cl)cn(C)c2=O)C3=O)c(OC)n1 [HDM201, (S)-5-(5-Chloro-1-methyl-2-oxo-1,2-dihydro-pyridin-3-yl)-6-(4-chloro-phenyl)-2-(2,4-dimethoxy-pyrimidin-5-yl)-1-isopropyl-5,6-dihydro-1H-pyrrolo[3,4-d]imidazol-4-one]
average concentration (target efficacious level) for 95% tumor regression [1]: 120 ng/mL | platelet kinetic profile, modeled, compared among regimens with single agent activity (platelets): best overall platelet kinetic profile | Count recovery time from C1D1 [2, 4]: 48 days | Duration of CR/CRi [2, 4]: 50 days | Time to CR/CRi [2, 4]: 7 weeks | Count recovery time from C1D1 [2, 5]: 40 days | Duration of CR/CRi [2, 5]: 23 days | Time to CR/CRi [2, 5]: 6 weeks | Count recovery time from C1D1 [2, 6]: 32 days | Duration of CR/CRi [2, 6]: 152 days | Time to CR/CRi [2, 6]: 5 weeks | Duration of CR/CRi [2, 7]: 51 days | Time to CR/CRi [2, 7]: 11 weeks | Duration of CR/CRi ([2]; AML CRi patient, 2C 45 mg, donor five, March 2017, patient withdrew consent while on CRi): 1* days | Duration of CR/CRi ([2]; AML CRi patient, 2C 45 mg, donor two, March 2017, patient ongoing at data cut off): 1^† days | CR/CRi results, number of patients ([2]; AML patients, Regimen 1B, September 2017): The already observed 2 CR/CRi results out of the small number of patients treated so far demonstrate the strong antitumor activity of the HDM201 in AML patients when dosed according to Regimen 1B. | Count recovery time from C1D1 [2, 8]: 48 days | Duration of CR/CRi [2, 8]: 50 days | Time to CR/CRI [2, 8]: 7 weeks | Count recovery time from C1D1 [2, 9]: 40 days | Duration of CR/CRi [2, 9]: 23 days | Time to CR/CRI [2, 9]: 6 weeks | Count recovery time from C1D1 [2, 10]: 28 days | Duration of CR/CRi [2, 10]: 45 days | Time to CR/CRI [2, 10]: 4 weeks | Count recovery time from C1D1 [2, 11]: 32 days | Duration of CR/CRi [2, 11]: 152 days | Time to CR/CRI [2, 11]: 5 weeks | Count recovery time from C1D1 [2, 12]: 30 days | Duration of CR/CRi [2, 12]: 41 days | Time to CR/CRI [2, 12]: 4 weeks | Duration of CR/CRi [2, 13]: 67 days | Time to CR/CRI [2, 13]: 3 weeks | Duration of CR/CRi [2, 14]: 51 days | Time to CR/CRI [2, 14]: 11 weeks | Duration of CR/CRi [2, 15]: 1 days | Time to CR/CRI [2, 15]: 12 weeks | Duration of CR/CRi [2, 16]: 62 days | Time to CR/CRI [2, 16]: 4 weeks | Duration of CR/CRi [2, 17]: 105 days | Time to CR/CRI [2, 17]: 4 weeks | Duration of CR/CRi [2, 18]: 40 days | Time to CR/CRI [2, 18]: 7 weeks | CR, number of patients ([2]; Dose escalation, Regimen 1A 250 mg (3 patients), September 2017): 250 mg (3): 1 CR | CR, number of patients ([2]; Dose escalation, Regimen 1A 400 mg (9 patients), September 2017): 400 mg (9): 1 CR | CR, number of patients ([2]; Dose escalation, Regimen 1B 120 mg (6 patients), September 2017): 120 mg (6): 1 CR | CRi, number of patients ([2]; Dose escalation, Regimen 1B 150 mg (6 patients), September 2017): 150 mg (6): 1 CRi | CR, number of patients [2, 19]: 1 | CRi, number of patients [2, 19]: 3 | CRi, number of patients ([2]; Dose expansion, Regimen 1A 250 mg, 6 pts, September 2017): 1 CRi | CR, number of patients [2, 20]: 1 CR, 1CRi | CRi, number of patients [2, 20]: 1 CR, 1CRi | BOR: CR [2, 21]: 2 (13) n (%) | BOR: CRi [2, 21]: 0 (0) n (%) | ORR (CR + CRi + PR) [2, 21]: 2 (13) n (%) | BOR: CR ([2]; Regimen 1B (n = 6), March 2017): 0 (0) n (%) | BOR: CRi ([2]; Regimen 1B (n = 6), March 2017): 1 (17) n (%) | ORR (CR + CRi + PR) ([2]; Regimen 1B (n = 6), March 2017): 1 (17) n (%) | BOR: CR ([2]; Regimen 2A (n = 7), March 2017): 0 (0) n (%) | BOR: CRi ([2]; Regimen 2A (n = 7), March 2017): 0 (0) n (%) | ORR (CR + CRi + PR) ([2]; Regimen 2A (n = 7), March 2017): 0 (0) n (%) | BOR: CR ([2]; Regimen 2C (n = 7), March 2017): 1 (14) n (%) | BOR: CRi ([2]; Regimen 2C (n = 7), March 2017): 3 (43) n (%) | ORR (CR + CRi + PR) ([2]; Regimen 2C (n = 7), March 2017): 4 (57) n (%) | BOR: CR ([2]; Total (N = 35), March 2017): 3 (9) n (%) | BOR: CRi ([2]; Total (N = 35), March 2017): 4 (11) n (%) | ORR (CR + CRi + PR) ([2]; Total (N = 35), March 2017): 7 (20) n (%) | patients with CRi ([2]; regimen 1B, hematological tumors): One patient | estimated average concentration during cycle 1 relative to tumor stasis concentration (about 41 ng/mL) [3]: above
